Test results reported in patent publication US7041844B2, “Irreversible non-steroidal antagonist compound and its use in the treatment of prostate cancer” (The University Of Tennessee Research Corporation, priority 1996, dated 2006).

Key:
rat prostate AR = molecular target: T1, rat prostate AR (Rattus norvegicus, UniProt P15207); experiment: Saturation binding of 3H-MIB in the AR preparation (Scatchard analysis)
T1 sequence (P15207 1-902): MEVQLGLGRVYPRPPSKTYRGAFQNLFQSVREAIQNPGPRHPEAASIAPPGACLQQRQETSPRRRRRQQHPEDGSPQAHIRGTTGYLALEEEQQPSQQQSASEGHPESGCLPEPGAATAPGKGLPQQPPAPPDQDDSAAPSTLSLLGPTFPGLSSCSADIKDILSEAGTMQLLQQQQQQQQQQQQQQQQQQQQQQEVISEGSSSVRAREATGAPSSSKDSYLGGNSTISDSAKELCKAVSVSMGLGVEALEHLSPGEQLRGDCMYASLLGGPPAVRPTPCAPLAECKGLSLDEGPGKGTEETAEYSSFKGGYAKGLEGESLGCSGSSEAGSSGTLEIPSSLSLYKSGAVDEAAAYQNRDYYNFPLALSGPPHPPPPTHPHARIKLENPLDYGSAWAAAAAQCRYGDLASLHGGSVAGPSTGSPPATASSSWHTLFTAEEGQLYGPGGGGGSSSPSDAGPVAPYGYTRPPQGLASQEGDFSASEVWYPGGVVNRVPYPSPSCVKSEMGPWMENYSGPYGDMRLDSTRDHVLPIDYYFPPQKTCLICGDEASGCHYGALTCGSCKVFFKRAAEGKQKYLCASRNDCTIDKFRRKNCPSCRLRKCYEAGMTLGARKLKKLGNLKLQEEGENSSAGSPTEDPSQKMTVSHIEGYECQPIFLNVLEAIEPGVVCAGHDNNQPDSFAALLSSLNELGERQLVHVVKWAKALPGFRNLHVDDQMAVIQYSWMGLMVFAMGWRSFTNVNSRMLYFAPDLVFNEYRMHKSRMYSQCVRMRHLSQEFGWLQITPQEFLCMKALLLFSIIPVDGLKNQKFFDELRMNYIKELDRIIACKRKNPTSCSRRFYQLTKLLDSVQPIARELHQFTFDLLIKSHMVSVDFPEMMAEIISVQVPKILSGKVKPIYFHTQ

rat ventral prostate AR = molecular target: T2, rat ventral prostate AR (Rattus norvegicus, UniProt P15207); experiment: Competitive displacement of 3H-MIB from AR binding sites; details: comparison of Ki values
T2 construct: from tissue; host or cells: ventral prostate cytosol of castrated male Sprague-Dawley rats
T2 sequence (P15207 1-902): T1 sequence (P15207 1-902)
Procedure: Receptor binding studies for the compounds shown in Table 3 were conducted as follows.
1. AR were isolated from rat ventral prostate tissue by differential centrifugation.
2. Samples of the following composition listed in Table 4 were incubated at 4° C. for 18 hours:
Percent Specific Binding=(B/B0)×100
Data were computer fitted to the equation: […]
Equilibrium dissociation constant of each isomer (Ki) was determined using the equation.
AR isolation was performed as follows.

Work on `C[C@@H]1CC2=CC(=O)CC[C@@H]2[C@H]2CC[C@@]3(C)[C@@H](CC[C@]3(C)O)[C@@H]21` [MIB, Mibolerone] yielded a Kd (rat prostate AR) of 0.182 nM.

With `O=C(CCl)NS[N+](=O)[O-]` [S-NT-CAA, S-nitro-thio chloroacetamide] the “AR binding affinity (result in words)” value (rat ventral prostate AR) was “close to that of S-Casodex”.

For `O=[N+]([O-])SN=C=S` [S-NT-NCS, S-nitro-thio-isothiocyanate], the “AR binding affinity (result in words)” value (rat ventral prostate AR) was “close to that of S-Casodex”.
